pIC50: −log10 of the molar value. ≈ marks a conversion by molar mass, not a printed value.

Eight molecules from ChEMBL document CHEMBL5215008, “Bioactive Arylnaphthalide Lignans from Justicia depauperata” (J Nat Prod, 2022) can be followed below.

Assay [1] deals with KB 3-1. The assay is described as follows: Cytotoxicity against human KB 3-1 cells assessed as reduction in cell viability. Format: functional, cell-based.
The subject of assay [2] is Klebsiella pneumoniae. The experiment in a line: Antibacterial activity against Klebsiella pneumoniae clinical isolate assessed as bacterial growth inhibition incubated overnight by broth microdilution assay. The assay is classed as functional.
Assay [3] deals with Salmonella typhi. The assay is described as follows: Antibacterial activity against Salmonella enterica subsp. enterica serovar Typhi CPC assessed as bacterial growth inhibition incubated overnight by broth microdilution assay. The assay is classed as functional. For orientation: Dilution methods test growth across graded concentrations, often in twofold steps.
In assay [4] the test system is Pseudomonas aeruginosa. The experiment in a line: Antibacterial activity against Pseudomonas aeruginosa HM801 assessed as bacterial growth inhibition incubated overnight by broth microdilution assay. The assay is classed as functional.
Assay [5] relates to Staphylococcus aureus. The experiment in a line: Antibacterial activity against Staphylococcus aureus ATCC43300 assessed as bacterial growth inhibition incubated overnight by broth microdilution assay. The assay is classed as functional.
The test system of assay [6] is Staphylococcus aureus. The assay is described as follows: Antibacterial activity against Staphylococcus aureus ATCC25923 assessed as bacterial growth inhibition incubated overnight by broth microdilution assay. Format: functional.
In assay [7] the test system is Klebsiella pneumoniae. The experiment in a line: Antibacterial activity against Klebsiella pneumoniae NR41388 assessed as bacterial growth inhibition incubated overnight by broth microdilution assay. Format: functional.
Assay [8] has as its system Salmonella enterica. The assay is described as follows: Antibacterial activity against Salmonella enterica NR13555 assessed as bacterial growth inhibition incubated overnight by broth microdilution assay. The assay is classed as functional.
The nature of assay [9]: Antioxidant activity assessed as inhibition of ABTS radical scavenging activity measured upto 6 mins. Format: functional.

With `COc1ccc(C[C@H]2NC(=O)/C=C/C[C@@H]([C@H](C)[C@H]3O[C@@H]3c3ccccc3)OC(=O)[C@H](CC(C)C)OC(=O)C(C)(C)CNC2=O)cc1Cl` [CRYPTOPHYCIN 52], the pIC50 – broadly, −log10 of the IC50, conventionally taken in molar units – in assay [1] was 10.89.
For the molecule `C=CCOC(=O)c1cc2ccc3c(c2c(-c2ccc4c(c2)OCO4)c1C=O)OCO3`, the MIC (in general, the smallest concentration in the dilution series that meets the test's criterion for growth inhibition) in [2] stood at 500 µg/mL (≈ 1240 µM); in assay [3] it was 500 µg/mL (≈ 1240 µM); in assay [4], 125 µg/mL (≈ 309 µM); in [5], 500 µg/mL (≈ 1240 µM).
Turning to `CCCCOC1OC(=O)c2cc3ccc4c(c3c(-c3ccc5c(c3)OCO5)c21)OCO4` (stereo not drawn), the MIC in assay [2] was 500 µg/mL (≈ 1190 µM); in assay [6], 500 µg/mL (≈ 1190 µM); in assay [3] it was 500 µg/mL (≈ 1190 µM); in assay [4], 250 µg/mL (≈ 595 µM); in assay [7], 500 µg/mL (≈ 1190 µM); in assay [5], 125 µg/mL (≈ 297 µM).
As to GENTAMICIN, the MIC in assay [8] came to 0.07 µg/mL; in [2], 0.03 µg/mL; in [6], 0.03 µg/mL; in assay [3] it was 0.05 µg/mL; in assay [4], 0.05 µg/mL; in assay [7] it was 0.07 µg/mL. In assay [5], the MIC stood at 0.07 µg/mL.
Turning to `Cc1c(C)c2c(c(C)c1O)CCC(C)(C(=O)O)O2` (stereo not drawn) [TROLOX], the negative-log IC50 (pIC50) in assay [9] was 4.17.
As for `COc1cc([C@@H](O)[C@@H]2CO[C@H](c3ccc(O)c(OC)c3)[C@H]2CO)ccc1O` [TANEGOOL], the minimum inhibitory concentration (MIC) came out at 250 µg/mL (≈ 664 µM) in [8]; 62.5 µg/mL (≈ 166 µM) in [2]; 500 µg/mL (≈ 1330 µM) in assay [6]; 31.3 µg/mL (≈ 83.2 µM) in assay [3]; 15.6 µg/mL (≈ 41.4 µM) in assay [4]; 500 µg/mL (≈ 1330 µM) in assay [7]. Moreover, in [5], the MIC worked out at 125 µg/mL (≈ 332 µM). Besides, the pIC50 in assay [9] is 4.39.
Take `COC(=O)c1cc2ccc3c(c2c2c1C(=O)c1cc(O)c(O)cc1-2)OCO3`: the MIC in assay [8] is 250 µg/mL (≈ 686 µM). Further, the pIC50 in assay [9] is 4.07; in [1], 5.02.
Consider `COC1OC(=O)c2cc3ccc4c(c3c(-c3ccc(O)c(O)c3)c21)OCO4` (stereo not drawn), for which the MIC in [8] was determined as 62.5 µg/mL (≈ 171 µM); in assay [2], 62.5 µg/mL (≈ 171 µM); in [6], 62.5 µg/mL (≈ 171 µM); in assay [3], 31.3 µg/mL (≈ 85.4 µM); in [4] it was 31.3 µg/mL (≈ 85.4 µM); in assay [7], 62.5 µg/mL (≈ 171 µM). Also, in [5], the MIC was found to be 62.5 µg/mL (≈ 171 µM). Besides, the pIC50 in assay [1] is 5.39.
